Test results taken from US10765114B2, “4-amino-6-(pyridyl and 2-substitutedphenyl)-picolinates and 6-amino-2-(pyridyl and 2-substitutedphenyl)-pyrimidine-4-carboxylates and their use as herbicides” (Dow AgroSciences LLC, priority 2013, dated 2020).

Assays:
Experiment in all cases: Post-Emergent Test III (Wheat and Barley)
BRSSS = assay type: in vivo; conditions: for Visual Growth Reduction (%) 21 Days After Application, BRSSS: BRSSS oil seed rape (Brassica napus), post-emergent
Outline: (§1)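 Injury was rated visually on a 0 to 100 percent scale 21 days after treatment, relative to untreated plants, and probit analysis of multiple dose rates gave growth-reduction values. Plants at the second or third true leaf stage had been track-sprayed at 187 L/ha.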

HORSS = assay type: in vivo; conditions: crop; for Visual Growth Reduction (%) 21 Days After Application, HORSS: HORSS barley (Hordeum vulgare), post-emergent
Outline: as §1

TRZSS = assay type: in vivo; conditions: crop; for Visual Growth Reduction (%) 21 Days After Application, TRZSS: TRZSS wheat (Triticum aestivum), post-emergent
Outline: as §1

POLCO (wild buckwheat) = assay type: in vivo, Polygonum convolvulus; conditions: for Visual Growth Reduction (%) 21 Days After Application, POLCO: POLCO wild buckwheat (Polygonum convolvulus), post-emergent
Description: (§2) Seeds of the desired test plant species were planted in Sun Gro MetroMix® 306 planting mixture, which typically has a pH of 6.0 to 6.8 and an organic matter content of about 30 percent, in plastic pots with a surface area of 103.2 square centimeters (cm^2). When required to ensure good germination and healthy plants, a fungicide treatment and/or other chemical or physical treatment was applied. The plants were grown for 7-36 days in a greenhouse with an approximate 14 h photoperiod which was maintained at about 18° C. during the day and 17° C. during the night. Nutrients and water were added on a regular basis and supplemental lighting was provided with overhead metal halide 1000-Watt lamps as necessary. The plants were employed for testing when they reached the second or third true leaf stage.
(§3) A weighed amount, determined by the highest rate to be tested, of each test compound was placed in a 25 mL glass vial and was dissolved in 4 mL of a 97:3 v/v mixture of acetone and DMSO to obtain concentrated stock solutions. […] The concentrated stock solutions obtained were diluted with 20 mL of an aqueous mixture containing acetone, water, isopropyl alcohol, DMSO, Agri-Dex crop oil concentrate, and X-77 surfactant in a 48:39:10:1.5:1.5:0.02 v/v ratio to obtain spray solutions containing the highest application rates. Additional application rates were obtained by serial dilution of 12 mL of the high rate solution into a solution containing 2 mL of 97:3 v/v mixture of acetone and DMSO and 10 mL of an aqueous mixture containing acetone, water, isopropyl alcohol, DMSO, Agri-Dex crop oil concentrate, and X-77 surfactant in a 48:39:10:1.5:1.5:0.02 v/v ratio to obtain ½×, ¼×, ⅛× and 1/16× rates of the high rate. Compound requirements are based upon a 12 mL application volume at a rate of 187 liters per hectare (L/ha). Formulated compounds were applied to the plant material with an overhead Mandel track sprayer equipped with 8002E nozzles calibrated to deliver 187 L/ha over an application area of 0.503 square meters at a spray height of 18 inches (43 cm) above the average plant canopy height. Control plants were sprayed in the same manner with the solvent blank.
(§4) The treated plants and control plants were placed in a greenhouse as described above and watered by subirrigation to prevent wash-off of the test compounds. After 21 dAYS, the condition of the test plants as compared with that of the untreated plants was determined visually and scored on a scale of 0 to 100 percent where 0 corresponds to no injury and 100 corresponds to complete kill and presented as indicated in Table A.
(§5) By applying the well-accepted probit analysis as described by J. Berkson in Journal of the American Statistical Society, 48, 565 (1953) and by D. Finney in “Probit Analysis” Cambridge University Press (1952), herbicidal injury of a specific compound at various rates can be used to calculate GR10, GR20, GR50, GR80 and GR90 values, which are defined as growth reduction factors that correspond to the effective dose of herbicide required to provide plant growth reduction (GR) of 10 percent, 20 percent, 50 percent, 80 percent and 90 percent, respectively. Probit analysis was applied to data collected from multiple dose rates of individual compounds utilizing the procedures explained in the following examples. The analysis of those dose rates is captured in the following tables.

[1] = system: VERPE (Persian speedwell); assay type: in vivo, Veronica persica; conditions: for Visual Growth Reduction (%) 21 Days After Application, VERPE: VERPE bird's-eye speedwell (Veronica persica), post-emergent
Description: as §2, §3, §4, §5

PAPRH (common poppy) = assay type: in vivo, Papaver rhoeas; conditions: for Visual Growth Reduction (%) 21 Days After Application, PAPRH: PAPRH common poppy (Papaver rhoeas), post-emergent
Description: as §2, §3, §4, §5

KCHSC (kochia) = assay type: in vivo, Kochia scoparia
Outline: as §1

**Q.** For `Cc1c(-c2cc(N)c(Cl)c(C(=O)O)n2)ccc(Cl)c1Cl` [Compound 28], which “Visual Growth Reduction (%) 21 Days After Application, BRSSS” value (BRSSS; 17.5 g ai/ha) is on record?
**A.** Its value is “B (85-94)”.

**Q.** And the “Visual Growth Reduction (%) 21 Days After Application, BRSSS” value (BRSSS; 35 g ai/ha)?
**A.** Its value is “B (85-94)”.

**Q.** And the “Visual Growth Reduction (%) 21 Days After Application, BRSSS” value (BRSSS; 70 g ai/ha)?
**A.** Its value is “A (95-100)”.

**Q.** And the “GR50, BRSSS” value (BRSSS; BRSSS, growth reduction of 50%, probit analysis, 21 days)?
**A.** Its value is 1 g ai/ha.

**Q.** What about the “GR80, BRSSS” value (BRSSS; BRSSS, growth reduction of 80%, probit analysis, 21 days) of the same compound?
**A.** Its value is 5 g ai/ha.

**Q.** What about the “GR90, BRSSS” value (BRSSS; BRSSS, growth reduction of 90%, probit analysis, 21 days) of the same compound?
**A.** The value was 18 g ai/ha.

**Q.** What about the “Visual Growth Reduction (%) 21 Days After Application, HORSS” value (HORSS; 17.5 g ai/ha) of the same compound?
**A.** The value was “G (0-29)”.

**Q.** What about the “Visual Growth Reduction (%) 21 Days After Application, HORSS” value (HORSS; 35 g ai/ha) of the same compound?
**A.** The value was “F (30-44)”.

**Q.** What about the “Visual Growth Reduction (%) 21 Days After Application, HORSS” value (HORSS; 70 g ai/ha) of the same compound?
**A.** The value was “F (30-44)”.

**Q.** What about the “GR10, HORSS” value (HORSS; HORSS barley, growth reduction of 10%, probit analysis, 21 days) of the same compound?
**A.** Its value is 3 g ai/ha.

**Q.** And the “GR20, HORSS” value (HORSS; HORSS barley, growth reduction of 20%, probit analysis, 21 days)?
**A.** Its value is 13 g ai/ha.

**Q.** What about the “Visual Growth Reduction (%) 21 Days After Application, TRZSS” value (TRZSS; 17.5 g ai/ha) of the same compound?
**A.** The value was “G (0-29)”.

**Q.** And the “Visual Growth Reduction (%) 21 Days After Application, TRZSS” value (TRZSS; 35 g ai/ha)?
**A.** The value was “F (30-44)”.

**Q.** And the “Visual Growth Reduction (%) 21 Days After Application, TRZSS” value (TRZSS; 70 g ai/ha)?
**A.** Its value is “E (45-59)”.

**Q.** And the “GR10, TRZSS” value (TRZSS; TRZSS wheat, growth reduction of 10%, probit analysis, 21 days)?
**A.** Its value is 16 g ai/ha.

**Q.** And the “GR20, TRZSS” value (TRZSS; TRZSS wheat, growth reduction of 20%, probit analysis, 21 days)?
**A.** Its value is 25 g ai/ha.

**Q.** What about the “Visual Growth Reduction (%) 21 Days After Application, POLCO” value (POLCO (wild buckwheat); 17.5 g ai/ha) of the same compound?
**A.** Its value is “A (95-100)”.

**Q.** What about the “Visual Growth Reduction (%) 21 Days After Application, POLCO” value (POLCO (wild buckwheat); 35 g ai/ha) of the same compound?
**A.** Its value is “A (95-100)”.

**Q.** What about the “Visual Growth Reduction (%) 21 Days After Application, POLCO” value (POLCO (wild buckwheat); 70 g ai/ha) of the same compound?
**A.** The value was “A (95-100)”.

**Q.** And the “GR50, POLCO” value (POLCO (wild buckwheat); POLCO, growth reduction of 50%, probit analysis, 21 days)?
**A.** Its value is 1 g ai/ha.

**Q.** And the “GR80, POLCO” value (POLCO (wild buckwheat); POLCO, growth reduction of 80%, probit analysis, 21 days)?
**A.** Its value is 1 g ai/ha.

**Q.** And the “GR90, POLCO” value (POLCO (wild buckwheat); POLCO, growth reduction of 90%, probit analysis, 21 days)?
**A.** The value was 4 g ai/ha.

**Q.** What about the “Visual Growth Reduction (%) 21 Days After Application, VERPE” value ([1]; 17.5 g ai/ha) of the same compound?
**A.** The value was “G (0-29)”.

**Q.** And the “Visual Growth Reduction (%) 21 Days After Application, VERPE” value ([1]; 35 g ai/ha)?
**A.** Its value is “F (30-44)”.

**Q.** And the “Visual Growth Reduction (%) 21 Days After Application, VERPE” value ([1]; 70 g ai/ha)?
**A.** The value was “E (45-59)”.

**Q.** And the “GR50, VERPE” value ([1]; VERPE, growth reduction of 50%, probit analysis, 21 days)?
**A.** The value was 63 g ai/ha.

**Q.** What about the “GR80, VERPE” value ([1]; VERPE, growth reduction of 80%, probit analysis, 21 days) of the same compound?
**A.** Its value is 111 g ai/ha.

**Q.** And the “GR90, VERPE” value ([1]; VERPE, growth reduction of 90%, probit analysis, 21 days)?
**A.** The value was greater than 140 g ai/ha.

**Q.** And the “Visual Growth Reduction (%) 21 Days After Application, PAPRH” value (PAPRH (common poppy); 17.5 g ai/ha)?
**A.** The value was “G (0-29)”.

**Q.** And the “Visual Growth Reduction (%) 21 Days After Application, PAPRH” value (PAPRH (common poppy); 35 g ai/ha)?
**A.** Its value is “G (0-29)”.

**Q.** What about the “Visual Growth Reduction (%) 21 Days After Application, PAPRH” value (PAPRH (common poppy); 70 g ai/ha) of the same compound?
**A.** Its value is “G (0-29)”.

**Q.** What about the “GR50, PAPRH” value (PAPRH (common poppy); PAPRH, growth reduction of 50%, probit analysis, 21 days) of the same compound?
**A.** Its value is greater than 140 g ai/ha.

**Q.** What about the “GR80, PAPRH” value (PAPRH (common poppy); PAPRH, growth reduction of 80%, probit analysis, 21 days) of the same compound?
**A.** Its value is greater than 140 g ai/ha.

**Q.** And the “GR90, PAPRH” value (PAPRH (common poppy); PAPRH, growth reduction of 90%, probit analysis, 21 days)?
**A.** The value was greater than 140 g ai/ha.

**Q.** And the pest or weed control at 17.5 g/ha (KCHSC (kochia); Bassia scoparia, post-emergence, 504 h, KCHSC kochia (Kochia scoparia), 17.5 g ai/ha, post-emergent, read-out: Visual Growth Reduction (%) 21 Days After Application, KCHSC)?
**A.** The pest or weed control at 17.5 g/ha was 75 to 84%.

**Q.** What about the pest or weed control at 35 g/ha (KCHSC (kochia); Bassia scoparia, post-emergence, 504 h, KCHSC kochia (Kochia scoparia), 35 g ai/ha, post-emergent, read-out: Visual Growth Reduction (%) 21 Days After Application, KCHSC) of the same compound?
**A.** Its pest or weed control at 35 g/ha is 75 to 84%.

**Q.** What about the pest or weed control at 70 g/ha (KCHSC (kochia); Bassia scoparia, post-emergence, 504 h, KCHSC kochia (Kochia scoparia), 70 g ai/ha, post-emergent, read-out: Visual Growth Reduction (%) 21 Days After Application, KCHSC) of the same compound?
**A.** The pest or weed control at 70 g/ha was 95 to 100%.

**Q.** And the “GR50, KCHSC” value (KCHSC (kochia); KCHSC, growth reduction of 50%, probit analysis, 21 days)?
**A.** The value was 3 g ai/ha.

**Q.** What about the “GR80, KCHSC” value (KCHSC (kochia); KCHSC, growth reduction of 80%, probit analysis, 21 days) of the same compound?
**A.** The value was 21 g ai/ha.

**Q.** And the “GR90, KCHSC” value (KCHSC (kochia); KCHSC, growth reduction of 90%, probit analysis, 21 days)?
**A.** The value was 54 g ai/ha.
